Entries after “also recorded” stand apart in the source; their conditions may differ.
Columns and labels:
Format in all cases: cell-based, human
p16 = assay: Western blot of p16 in SCC-4 cells; conditions: SCC-4 cells, 3 h
Procedure: The SCC-1 (UM-SCC-1) cell line was obtained from the University of Michigan Cancer Research Laboratory, and CAL-27 and SCC-4 cells were obtained from the American Type Culture Collection (Manassas, Va.). SCC-1 and CAL-27 cells were cultured in DMEM media, whereas SCC-4 cells were grown in 1:1 Hams F-12 DMEM media. All media was supplemented with 10% fetal bovine serum (HyClone, Logan, Utah), 1.2% sodium bicarbonate, and 5000 units/ml penicillin, 5 μg/ml streptomycin and 10 μg/ml neomycin. OGF was purchased from Sigma-Aldrich (St. Louis, Mo.), dissolved in sterile water, and used at a final concentration of 10^−6 M.
Synchronized cells (˜2×10^6) from each treatment were solubilized in 200 μl RIPA buffer (1×PBS, 10 μM IGEPAL, 1 mg/ml SDS, 5 mg/ml deoxycholic acid), containing protease and phosphatase inhibitors (2 μg/ml aprotinin, 3 mg/ml phenylmethyl sulfonyl fluoride (PMSF), 1 mM sodium orthovanidate, 1 μM okadaic acid). Total protein concentrations were measured using the DC protein assay kit (Bio-Rad Laboratories, Hercules, Calif.). Equal amounts of protein (40 μg) were subjected to 10% SDS-PAGE followed by transfer of proteins onto polyvinylidene difluoride (Millipore, Billerica, Mass.) using standard protocols. […]

p16/Cdk4 complex = assay: Cdk4 immunoprecipitation, p16/Cdk4 and cyclin D1/Cdk4 complexes in SCC-1 cells
Procedure: Cell extracts were subjected to immunoprecipitation using antibodies against Cdk4 and protein A beads (Santa Cruz). Immunoprecipitates were separated on a 15% SDS-PAGE gel, and membrane blots probed with p16 antibodies (1:200), and developed using a chemiluminescence Western blotting detection system. Blots were re-probed with Cdk4 antibody (1:200). Five independent experiments were performed.

Cdk4 kinase activity = assay: Immunoprecipitation and Rb kinase assay (Cdk4 kinase activity) in SCC-1 cells
Procedure: To quantify expression levels or kinase activity, the optical density of each band was determined by densitometry and analyzed by QuickOne (Bio-Rad Laboratories). Each value was normalized to β-actin from the same blot. To report the changes due to OGF treatment, the fold increase was calculated by dividing the normalized value from the OGF treated samples by the normalized value of control samples at each time point; thus, increases due to OGF have values greater than one, and decreases due to OGF have values less than one.
Immunoprecipitation and Rb kinase assay. For immunoprecipitating protein complexes, cell extracts were prepared as follows: 2×10^6 cells per sample were rinsed in cold PBS followed by lysis in 100 μl NP40 immunoprecipitation buffer (1% NP-40, 50 mM Tris-HCI (pH7.4), 150 mM NaCl, 1 mM EDTA, 10 mM NaF, 2 μg/ml antipain, 1 mM sodium orthovanidate, 2 μg/ml aprotinin, 2 μg/ml leupeptin, 1 μg/ml pepstatin A, 1 μM okadaic acid, 1 mM PMSF, 1 mM dithiothreitol (DTT). For each immunoprecipitation reaction mixture, a total of 500 μg of protein extract was used. The lysates were then subjected to immunoprecipitation using 10 μl polyclonal antibody against Cdk4 prebound with agarose conjugate (sc-601 AC, Santa Cruz) for 60 min at 4° C. Then immunoprecipitates were mixed with kinase buffer (25 mM HEPES, pH7.4, 10 mM MgCl2), 5 μCi γ^32P-ATP, and Rb(769-921) (sc-4112, Santa Cruz) as the substrate for Cdk4. After incubation for 30 min at 30° C., with occasional mixing, the reaction was stopped by the addition of 2× sample loading buffer (0.5 M Tris-HCl, pH 6.8, 4.4% (w/v) SDS, 20% (v/v) glycerol, 2% (v/v) 2-mercaptoethanol, and bromophenol blue in distilled/deionized water). Proteins in the reaction mixture were separated by a 10% SDS-PAGE gel. The Cdk4 kinase activity pattern was visualized by autoradiography of phosphorylated Rb.

BxPC-3 cells = assay: Growth of BxPC-3 cells transfected with p21 siRNA or negative control siRNA; conditions: for reduction in growth: negative control siRNA-transfected BxPC-3 cells
Procedure: The p21-targeted siRNAs were obtained from Santa Cruz Biotechnology, and negative control siRNAs were purchased from Ambion (Ambion, Inc., Austin, Tex.). For transfection, 2×10^5 cells per well were seeded in 6-well plates containing 1 ml of media without antibiotics. For each well, 1 μl of siRNA stock (20 μM) was mixed with 175 μl of serum-free media. Two μl of Oligofectamine reagent (Invitrogen, Carlsbad, Calif.) was added to prewashed cells in each well, making the final concentration for siRNA approximately 20 nM. Cells were incubated for 4 hours at 37° C. prior to the addition of OGF. Eighteen hours later, 1 ml fresh complete media with or without OGF was added to the cultures; media and OGF were replaced daily. At the indicated time points, cells were collected for growth curves or Western blotting.

[Met^5]-enkephalin [OGF]
p16 expression relative to synchronized control cells (p16): induced p16 expression
level of the p16/Cdk4 complex (p16/Cdk4 complex; 3, 6, 9, and 12 h, significant (p<0.05) at 9 and 12 h): elevated at all time points; also recorded: increased at all time points
level of the cyclin D1/Cdk4 complex (p16/Cdk4 complex; after treatment with OGF): no change
Cdk4 kinase activity vs control cells at each respective time (Cdk4 kinase activity; OGF for 3, 6, 9, or 12 h (FIG. 1)): differed significantly
Cdk4 kinase activity relative to controls (Cdk4 kinase activity; OGF for 6, 9, and 12 h): marked decrease
Cdk4 kinase activity relative to controls (Cdk4 kinase activity; OGF for 3 h): transient increase
effect on cell growth of cells transfected with p21 siRNA (BxPC-3 cells; BxPC-3 cells, 10^-6 M OGF): no effect
Cell numbers vs transfected cells receiving sterile water (BxPC-3 cells; BxPC-3 cultures transfected with negative control siRNA, 10^-6 M OGF (FIG. 8)): significantly reduced
reduction in growth (BxPC-3 cells; 10^-6 M OGF, 48 hours): 17.8%
reduction in growth (BxPC-3 cells; 10^-6 M OGF, 72 hours): 28.6%
reduction in growth (BxPC-3 cells; 10^-6 M OGF, 96 hours): 35.8%
reduction in growth (BxPC-3 cells; 10^-6 M OGF, 120 hours): 33.0%

From patent US7807368B2, “Cyclin-dependent kinase inhibitors as targets for opiod growth factor treatment” (priority 2006, dated 2010)
